From ChEMBL document CHEMBL1150137, “Nanjiols A-C, new steroids from the Chinese soft coral Nephthea bayeri” (J Nat Prod, 2002)
Values after ≈ are worked out from the molar mass of the structure shown.

Test system: HL-60
Test: Cytotoxicity against human HL60 cells
Type: functional, cell-based

Question: With CC(=O)O[C@H]1C[C@H]2[C@@H]3CCC4=CC(=O)CC[C@]4(C)[C@H]3C[C@@H](OC(C)=O)[C@]2(C)[C@H]1[C@@](C)(O)CCCC(C)C [NANJIOL B] as the compound, how does the IC50 read?
Answer: Its IC50 is 5 µg/mL (≈ 9.68 µM).
